ChEMBL document CHEMBL3091414, “Validation of Reactivity Descriptors to Assess the Aromatic Stacking within the Tyrosine Gate of FimH” (ACS Med Chem Lett, 2013)

Tests used:
[1] = Binding affinity to Escherichia coli J96 FimH lectin domain (Phe1 to Thr158) expressed in Escherichia coli C43 (DE3) by surface plasmon resonance analysis
[2] = Binding affinity to Escherichia coli J96 FimH lectin domain (Phe1 to Thr158) expressed in Escherichia coli C43 (DE3) by isothermal titration calorimetry assay

Structure (SMILES)	Kd [1]	Kd [2]
CCCCO[C@H]1O[C@H](CO)[C@@H](O)[C@H](O)[C@@H]1O [BUTYLALPHAMAN]	151 nM	154 nM
O=C(C[C@H]1O[C@H](CO)[C@@H](O)[C@H](O)[C@@H]1O)Nc1ccc(O)cc1	328 nM	–
O=C(C[C@H]1O[C@H](CO)[C@@H](O)[C@H](O)[C@@H]1O)Nc1ccccc1	372 nM	–
O=C(C[C@H]1O[C@H](CO)[C@@H](O)[C@H](O)[C@@H]1O)Nc1ccc(Cl)cc1	113 nM	–
OCC#Cc1ccc(O[C@H]2O[C@H](CO)[C@@H](O)[C@H](O)[C@@H]2O)cc1	36.9 nM	–
O=C(C[C@H]1O[C@H](CO)[C@@H](O)[C@H](O)[C@@H]1O)Nc1nc2ccccc2s1	59 nM	–
COCC#Cc1ccc(O[C@H]2O[C@H](CO)[C@@H](O)[C@H](O)[C@@H]2O)cc1	–	59.5 nM
CCCCCCCO[C@H]1O[C@H](CO)[C@@H](O)[C@H](O)[C@@H]1O	3.1 nM	7.3 nM
O=C(C[C@H]1O[C@H](CO)[C@@H](O)[C@H](O)[C@@H]1O)Nc1nc2ccccc2[nH]1	4200 nM	–
CCCSCCCO[C@H]1O[C@H](CO)[C@@H](O)[C@H](O)[C@@H]1O	14 nM	–
COc1ccc(C#CCO[C@H]2O[C@H](CO)[C@@H](O)[C@H](O)[C@@H]2O)cc1	53 nM	–
